Consider 2 compounds from publication PMC12500691 (Frontiers in Cellular and Infection Microbiology, 2025).

In one experiment the target is SARS-CoV-2 ORF7a (Severe acute respiratory syndrome coronavirus 2, UniProt P0DTC7). In words: biochemical. It is filed as binding, SARS-CoV-2 (Wuhan variant).
The subject of the next experiment is SARS-CoV-2 proteins. It is filed as binding, SARS-CoV-2 (Wuhan variant).

Chain of SARS-CoV-2 ORF7a (P0DTC7 16-96): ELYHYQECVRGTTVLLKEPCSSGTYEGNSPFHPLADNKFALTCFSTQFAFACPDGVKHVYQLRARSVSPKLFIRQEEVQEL

What is called Kd is the free concentration of one partner at which half of the binding sites on the other are occupied at equilibrium, for simple one-to-one binding. A high value points to lower affinity. On SARS-CoV-2 ORF7a, `CC[C@H](C)[C@H](NC(=O)[C@H](CCCCN)NC(=O)[C@H](CCC(=O)O)NC(=O)[C@H](CCCCN)NC(=O)[C@H](CO)NC(=O)[C@H](CCCCN)NC(=O)[C@H](CCCNC(=N)N)NC(=O)[C@H](Cc1ccccc1)NC(=O)[C@H](Cc1ccccc1)NC(=O)[C@H](CC(=O)O)NC(=O)CNC(=O)[C@H](CC(C)C)NC(=O)[C@@H](N)CC(C)C)C(=O)NCC(=O)N[C@@H](CCCCN)C(=O)N[C@@H](CCC(=O)O)C(=O)N[C@@H](Cc1ccccc1)C(=O)N[C@@H](CCCCN)C(=O)N[C@@H](CCCNC(=N)N)C(=O)N[C@H](C(=O)N[C@H](C(=O)N[C@@H](CCC(N)=O)C(=O)N[C@@H](CCCNC(=N)N)C(=O)N[C@H](C(=O)N[C@@H](CCCCN)C(=O)N[C@@H](CC(=O)O)C(=O)N[C@@H](Cc1ccccc1)C(=O)N[C@@H](CC(C)C)C(=O)N[C@@H](CCCNC(=N)N)C(=O)N[C@@H](CC(N)=O)C(=O)N[C@@H](CC(C)C)C(=O)N[C@H](C(=O)N1CCC[C@H]1C(=O)N[C@@H](CCCNC(=N)N)C(=O)N[C@H](C(=O)N[C@@H](CCC(=O)O)C(=O)N[C@@H](CO)C(=O)O)[C@@H](C)O)C(C)C)[C@@H](C)CC)C(C)C)[C@@H](C)CC` [LL-37] returned a Kd of 140 ± 80 nM.

As to “synthetic control peptide: synthetic control peptide with an alpha-helical structure and a length of 29 amino acids, purchased from Biomatik (DKDGDLKTQIEKLWTEVNALKEIQALQTVCL)”, the “interaction with the SARS-CoV-2 proteins” value in the experiment on SARS-CoV-2 proteins is given as “did not show an interaction with the SARS-CoV-2 proteins”.
